Values after ≈ are worked out from the molar mass of the structure shown. Active and inactive are the calls of the source. The rule behind the calls is not given here.
Legend:
[1] = system: Staphylococcus aureus; test: Antimicrobial activity against Staphylococcus aureus 01A1095 assessed as inhibition of cell viability at 350 uM after 18 hrs by spectrophotometry; format: functional, organism-based
[2] = system: Pseudomonas aeruginosa; test: Antimicrobial activity against Pseudomonas aeruginosa PAO1 assessed as inhibition of cell viability at 350 uM after 18 hrs by spectrophotometry; format: functional, organism-based
[3] = system: Pseudomonas aeruginosa; test: Antimicrobial activity against Pseudomonas aeruginosa PAO1 assessed as inhibition of cell viability at 175 uM after 18 hrs by spectrophotometry; format: functional; conditions: PAO1, 18 h
[4] = system: Staphylococcus aureus; test: Antimicrobial activity against Staphylococcus aureus 01A1095 assessed as inhibition of cell viability at 87.5 uM after 18 hrs by spectrophotometry; format: functional; conditions: 01A1095, 18 h
[5] = system: Pseudomonas aeruginosa; test: Antimicrobial activity against Pseudomonas aeruginosa PAO1 assessed as inhibition of cell viability at 87.5 uM after 18 hrs by spectrophotometry; format: functional; conditions: PAO1, 18 h
[6] = system: Pseudomonas aeruginosa; test: Antimicrobial activity against Pseudomonas aeruginosa PAO1 assessed as inhibition of cell viability after 18 hrs by spectrophotometry; format: functional, organism-based; conditions: PAO1, 18 h
[7] = system: Staphylococcus aureus; test: Antimicrobial activity against Staphylococcus aureus 01A1095 assessed as inhibition of cell viability at 175 uM after 18 hrs by spectrophotometry; format: functional; conditions: 01A1095, 18 h
[8] = system: Staphylococcus aureus; test: Antimicrobial activity against Staphylococcus aureus 01A1095 assessed as inhibition of cell viability after 18 hrs by spectrophotometry; format: functional, organism-based; conditions: 01A1095, 18 h

Row | SMILES | IC50 [6] [µM] | MIC [6] [µM] | IC50 [8] [µM] | also measured
1 | CN(C)CCCOc1c(Br)cc(CCN(C)C)cc1Br |  |  |  | inhibition [1]: inactive; inhibition [2]: inactive
2 | COC1=C(Br)[C@H](O)[C@@]2(C=C1Br)CC(C(=O)NCCCOc1c(Br)cc(CCN)cc1Br)=NO2 [ARAPLYSILLIN I] |  |  |  | inhibition at 175 µM [3]: 65%; inhibition at 87.5 µM [4]: 60%
3 | COc1c(Br)cc(/C=C/C(=O)NCCCNCCCCN)cc1Br [IANTHELLIFORMISAMINE B] |  |  |  | inhibition at 87.5 µM [5]: 80%
4 | COc1c(Br)cc(/C=C/C(=O)NCCCNCCCCNCCCN)cc1Br [IANTHELLIFORMISAMINE A] | 6.8 | 35 (≈ 18.2 µg/mL) |  | inhibition at 175 µM [7]: 77%
5 | COc1c(Br)cc(/C=C/C(=O)NCCCNCCCCNCCCNC(=O)/C=C/c2cc(Br)c(OC)c(Br)c2)cc1Br [IANTHELLIFORMISAMINE C] | 8.9 | 17.5 (≈ 14.7 µg/mL) | 4.1 | MIC [8]: 8.75 µM (≈ 7.33 µg/mL)
6 | O=C(O)c1cn(C2CC2)c2cc(N3CCNCC3)c(F)cc2c1=O [CIPROFLOXACIN] | 0.038 |  | 125 | 

Reference: ChEMBL document CHEMBL2046361, “Ianthelliformisamines A-C, antibacterial bromotyrosine-derived metabolites from the marine sponge Suberea ianthelliformis” (J Nat Prod, 2012)
